Reference: patent US20220315934A1, “HETEROLOGOUS RIBOSOME GENERATION, […] COMPOSITIONS THEREOF” (priority 2019, published 2022)

Assays:
Type in all cases: cell-based
E. coli strain S4246 = test: Antibiotic sensitivity/resistance of erythromycin-resistant strain S4246
Method: The erythromycin-resistant strain S4246 was generated using conventional recombineering (76, 77). Briefly, chemically competent S2060 cells were transformed with pKD46 (77) and plated on 2×YT agar plates supplemented with 50 μg mL^−1 carbencillin at 30° C. A single colony was picked, grown at 30° C. in 2×YT liquid medium supplemented with 50 μg mL^−1 carbencillin and 10 mM arabinose, and made chemically competent when the culture reached the appropriate OD600. Chemically competent S2060/pKD46 cells were transformed with the phosphothiorated recombineering oligonucleotide AB5708 (5′-C*T*C*A*[…] CCGCG […]-3′, SEQ ID NO: 403; phosphothirate bonds indicated as *, introduced mutation is bolded) to introduce the rrlA-H A2058U mutation on replichore 2 (76). Following recovery for 3 hours at 30° C., transformed cells were plated on 2×YT agar plates supplemented with 1000 μg mL^−1 erythromycin and incubated at 37° C. to cure the resident pKD46 plasmid. Following overnight growth, single colonies were picked into 2×YT liquid medium supplemented with 50 μg mL^−1 streptomycin, 10 μg mL^−1 tetracycline and 1000 μg mL^−1 erythromycin and allowed to grow overnight at 37° C. To assess the degree of rrlA-H mutagenesis, cultures were used as PCR templates using primers AB5710 (5′-[…]-3′, SEQ ID NO: 404) and AB5711 (5′-[…]-3′, SEQ ID NO: 405), and the PCR products were treated with the endonuclease HpyCH4III (New England Biolabs) according to the manufacturer's guidelines. Wildtype rrlA-H genotypes show no digestion under these conditions, whereas complete conversion results in complete PCR product digestion. Intermediate (incomplete) digestion indicated in incomplete conversion of all seven genomic alleles. The completely converted strain S4246 was confirmed to be sensitive to the following antibiotics (ensures no resistance crosstalk with plasmid-borne markers): carbenicillin (50 μg mL^−1), spectinomycin (100 μg mL^−1), chloramphenicol (40 μg mL^−1), and kanamycin (30 μg mL^−1). The strain was confirmed to be resistant to the following antibiotics: streptomycin (50 μg mL^−1), tetracycline (10 μg mL^−1), and erythromcyin (1000 μg mL^−1).

[1] = tested on: episome-derived E. coli orthogonal ribosome LSUs; test: Erythromycin-dependent (ermCL) orthogonal sfGFP reporter in S4246, E. coli orthogonal ribosomes
Text: (§1) To assess the degree of association between E. coli LSUs and heterologous SSUs, an erythromycin-dependent reporter was developed to distinguish between genome- (E. coli; erythromycin-resistant) and episome-derived (heterologous; erythromycin-sensitive) LSUs. The erythromycin-resistant strain S4246 was developed, wherein all seven genomic 23S genes (rrlA-H) of 52060 cells were mutated (A2058U) (75) to mitigate macrolide binding in the ribosomal exit tunnel (FIG. 18A) (76, 77). rrlA-H A2058U sequences are presented in Table 1.
(§2) Next, the ErmC leader peptide, ermCL, was introduced ahead of the orthogonal sfGFP reporter, ensuring that reporter translation would be abrogated via erythromycin- and ermCL-dependent translational stalling (78) (FIG. 18B).
To validate this sensor, the erythromycin sensitivity of an episome-derived E. coli orthogonal ribosome encoding or lacking the identical A2058U mutation was assessed. A recently described stapled E. coli ribosome (d2d8) (7) that preferentially uses a covalently linked 23S rRNA, with or without the identical mutation was used as a control.

heterologous ribosomes = test: Erythromycin-dependent orthogonal sfGFP reporter in S4246, heterologous ribosomes
Text: as §1, §2
This analysis was next extended to a set of 20 functional heterologous ribosomes.

[2] = heterologous ribosomes bearing intermediate homology (92.9-97.0%)

O=C(N[C@H](CO)[C@H](O)c1ccc([N+](=O)[O-])cc1)C(Cl)Cl [chloramphenicol]
sensitivity of strain S4246 (E. coli strain S4246; chloramphenicol 40 μg mL^−1): sensitive

CC[C@H]1OC(=O)[C@H](C)[C@@H](O[C@H]2C[C@@](C)(OC)[C@@H](O)[C@H](C)O2)[C@H](C)[C@@H](O[C@@H]2O[C@H](C)C[C@H](N(C)C)[C@H]2O)[C@](C)(O)C[C@@H](C)C(=O)[C@H](C)[C@@H](O)[C@]1(C)O [erythromycin]
change in orthogonal translation upon erythromycin dosing ([1]; A2058U-LSUs, free and stapled (d2d8)): no appreciable change
change in orthogonal translation upon erythromycin dosing ([1]; unmutated LSUs, dose-dependent): marked reduction
MIC (E. coli strain S4246; Escherichia coli, S4246): > 1000 µg/mL
resistance of strain S4246 (E. coli strain S4246; erythromycin 1000 μg mL^−1): resistant
sfGFP signal upon erythromycin treatment (heterologous ribosomes; [2]): extensive reduction
viability upon erythromycin treatment (heterologous ribosomes; [2]): no associated viability defect
sfGFP translation and cell viability upon erythromycin treatment (heterologous ribosomes; heterologous ribosomes with high 16S sequence identity to E. coli (≥99.2%)): dramatic reduction
sfGFP signal upon erythromycin treatment (heterologous ribosomes; more divergent heterologous ribosomes (79.3-90.3%)): decreased minimally

CC1(C)S[C@@H]2[C@H](NC(=O)C(C(=O)O)c3ccccc3)C(=O)N2[C@H]1C(=O)O (stereo partly drawn) [carbenicillin]
sensitivity of strain S4246 (E. coli strain S4246; carbenicillin 50 μg mL^−1): sensitive

[H]/N=C(/N)N[C@H]1[C@H](O)[C@@H](O)[C@H](O[C@@H]2O[C@@H](C)[C@](O)(C=O)[C@H]2O[C@@H]2O[C@@H](CO)[C@H](O)[C@@H](O)[C@@H]2NC)[C@@H](N/C(N)=N\[H])[C@@H]1O [streptomycin]
resistance of strain S4246 (E. coli strain S4246; streptomycin 50 μg mL^−1): resistant

CN[C@@H]1[C@H](O)[C@H](NC)[C@H]2O[C@@]3(O)C(=O)C[C@@H](C)O[C@H]3O[C@@H]2[C@H]1O [spectinomycin]
sensitivity of strain S4246 (E. coli strain S4246; spectinomycin 100 μg mL^−1): sensitive
